From US20170000133A1, “BENZOXABOROLE FUNGICIDES” (SYNGENTA PARTICIPATIONS AG, priority 2013, published 2017)

Test system: Glomerella lagenarium (Colletotrichum lagenarium)
Assay: Glomerella lagenarium (Colletotrichum lagenarium) / liquid culture (anthracnose)
Type: cell-based
Conditions: Colletotrichum orbiculare, PDB potato dextrose broth, 24° C., 3-4 days after application, read-out: disease control (inhibition of growth measured photometrically)
Procedure, shortened: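 Compound was applied at 200 ppm from DMSO solution, then potato dextrose broth carrying cryostored fungal spores was added. Growth inhibition was measured by photometry after 3-4 days of incubation at 24° C.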

| SMILES | inhibition at 200 ppm [%] |
| --- | --- |
| O=C(NCc1ccc(Oc2ccccc2)cc1)c1cc2c(cc1F)COB2O [Compound 136] | ≥ 80 |
| O=C(OCC(Cl)(Cl)Cl)c1cc2c(cc1Cl)COB2O [Compound 197] | ≥ 80 |
| C=CCCOC(=O)c1cc2c(cc1Cl)COB2O [Compound 203] | ≥ 80 |
| O=C(OC1CCC1)c1cc2c(cc1Cl)COB2O [Compound 205] | ≥ 80 |
| O=C(OCCOc1ccc(Cl)cc1)c1cc2c(cc1Cl)COB2O [Compound 226] | ≥ 80 |
| C#CCCOC(=O)c1cc2c(cc1Cl)COB2O [Compound 229] | ≥ 80 |
| C#CCCCOC(=O)c1ccc2c(c1)B(O)OC2 [Compound 334] | ≥ 80 |

Test system: Mycosphaerella arachidis (Cercospora arachidicola)
Assay: Mycosphaerella arachidis (Cercospora arachidicola) / liquid culture (early leaf spot)
Type: cell-based
Conditions: PDB potato dextrose broth, 24° C., 4-5 days after application, read-out: disease control (inhibition of growth determined photometrically)
Procedure, shortened: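 Test compound, applied at 200 ppm from DMSO solution, was combined with spore-containing potato dextrose broth. Photometric growth inhibition was scored after 4-5 days at 24° C.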

| SMILES | inhibition at 200 ppm [%] |
| --- | --- |
| O=C(NCc1ccc(Oc2ccccc2)cc1)c1cc2c(cc1F)COB2O [Compound 136] | ≥ 80 |
| O=C(OCC(Cl)(Cl)Cl)c1cc2c(cc1Cl)COB2O [Compound 197] | ≥ 80 |
| C=CCCOC(=O)c1cc2c(cc1Cl)COB2O [Compound 203] | ≥ 80 |
| O=C(OC1CCC1)c1cc2c(cc1Cl)COB2O [Compound 205] | ≥ 80 |
| O=C(OCCOc1ccc(Cl)cc1)c1cc2c(cc1Cl)COB2O [Compound 226] | ≥ 80 |
| C#CCCOC(=O)c1cc2c(cc1Cl)COB2O [Compound 229] | ≥ 80 |
| C#CCCCOC(=O)c1ccc2c(c1)B(O)OC2 [Compound 334] | ≥ 80 |

Test system: not given
Assay: not given
Conditions: not given

| SMILES | melting point [°C] |
| --- | --- |
| O=C(NCc1ccc(Oc2ccccc2)cc1)c1cc2c(cc1F)COB2O [Compound 136] | 178 to 180 |

Test system: Mycosphaerella graminicola (Septoria tritici)
Assay: Mycosphaerella graminicola (Septoria tritici) / liquid culture (Septoria blotch)
Type: cell-based
Conditions: Zymoseptoria tritici, PDB potato dextrose broth, 24° C., 4-5 days after application, read-out: disease control (inhibition of growth determined photometrically)
Procedure, shortened: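 Growth inhibition was read photometrically 4-5 days after application, following incubation at 24° C of fungal conidia in potato dextrose broth over test compound (200 ppm, from DMSO solution) in microtiter plates.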

| SMILES | inhibition at 200 ppm [%] |
| --- | --- |
| O=C(NCc1ccc(Oc2ccccc2)cc1)c1cc2c(cc1F)COB2O [Compound 136] | ≥ 80 |
| O=C(OCC(Cl)(Cl)Cl)c1cc2c(cc1Cl)COB2O [Compound 197] | ≥ 80 |
| C=CCCOC(=O)c1cc2c(cc1Cl)COB2O [Compound 203] | ≥ 80 |
| O=C(OC1CCC1)c1cc2c(cc1Cl)COB2O [Compound 205] | ≥ 80 |
| O=C(OCCOc1ccc(Cl)cc1)c1cc2c(cc1Cl)COB2O [Compound 226] | ≥ 80 |
| C#CCCOC(=O)c1cc2c(cc1Cl)COB2O [Compound 229] | ≥ 80 |
| C#CCCCOC(=O)c1ccc2c(c1)B(O)OC2 [Compound 334] | ≥ 80 |

Test system: Fusarium culmorum
Assay: microbe, parasite or virus in culture
Type: cell-based
Conditions: read-out: disease control (inhibition of growth determined visually)

| SMILES | inhibition at 200 ppm [%] |
| --- | --- |
| O=C(OCC(Cl)(Cl)Cl)c1cc2c(cc1Cl)COB2O [Compound 197] | ≥ 80 |
| C=CCCOC(=O)c1cc2c(cc1Cl)COB2O [Compound 203] | ≥ 80 |
| O=C(OC1CCC1)c1cc2c(cc1Cl)COB2O [Compound 205] | ≥ 80 |
| O=C(OCCOc1ccc(Cl)cc1)c1cc2c(cc1Cl)COB2O [Compound 226] | ≥ 80 |
| C#CCCOC(=O)c1cc2c(cc1Cl)COB2O [Compound 229] | ≥ 80 |
| C#CCCCOC(=O)c1ccc2c(c1)B(O)OC2 [Compound 334] | ≥ 80 |

Test system: Thanatephorus cucumeris (Rhizoctonia solani)
Assay: Thanatephorus cucumeris (Rhizoctonia solani) / liquid culture (foot rot, damping-off)
Type: cell-based
Conditions: PDB potato dextrose broth, 24° C., 3-4 days after application, read-out: disease control (inhibition of growth determined photometrically)
Procedure, shortened: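 Photometric growth-inhibition readout taken 3-4 days after application, with cultures incubated at 24 °C. Test compound was applied at 200 ppm from DMSO solution to R. solani mycelial fragments in PDB.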

| SMILES | inhibition at 200 ppm [%] |
| --- | --- |
| O=C(OCC(Cl)(Cl)Cl)c1cc2c(cc1Cl)COB2O [Compound 197] | ≥ 80 |
| C=CCCOC(=O)c1cc2c(cc1Cl)COB2O [Compound 203] | ≥ 80 |
| O=C(OC1CCC1)c1cc2c(cc1Cl)COB2O [Compound 205] | ≥ 80 |
| O=C(OCCOc1ccc(Cl)cc1)c1cc2c(cc1Cl)COB2O [Compound 226] | ≥ 80 |
| C#CCCOC(=O)c1cc2c(cc1Cl)COB2O [Compound 229] | ≥ 80 |
| C#CCCCOC(=O)c1ccc2c(c1)B(O)OC2 [Compound 334] | ≥ 80 |

Test system: Pythium ultimum
Assay: Pythium ultimum / liquid culture (seedling damping off)
Type: cell-based
Conditions: Globisporangium ultimum; 200 ppm; potato dextrose broth, 24° C., 2-3 days after application; read-out: disease control (inhibition of growth determined photometrically)

| SMILES | inhibition at 200 ppm [%] |
| --- | --- |
| O=C(NCc1ccc(Oc2ccccc2)cc1)c1cc2c(cc1F)COB2O [Compound 136] | ≥ 80 |
| O=C(OCC(Cl)(Cl)Cl)c1cc2c(cc1Cl)COB2O [Compound 197] | ≥ 80 |
| C=CCCOC(=O)c1cc2c(cc1Cl)COB2O [Compound 203] | ≥ 80 |
| O=C(OC1CCC1)c1cc2c(cc1Cl)COB2O [Compound 205] | ≥ 80 |
| O=C(OCCOc1ccc(Cl)cc1)c1cc2c(cc1Cl)COB2O [Compound 226] | ≥ 80 |
| C#CCCOC(=O)c1cc2c(cc1Cl)COB2O [Compound 229] | ≥ 80 |
| C#CCCCOC(=O)c1ccc2c(c1)B(O)OC2 [Compound 334] | ≥ 80 |

Test system: Gaeumannomyces graminis
Assay: Gaeumannomyces graminis / liquid culture (take-all of cereals)
Type: cell-based
Conditions: PDB potato dextrose broth, 24° C., 4-5 days after application, read-out: disease control (inhibition of growth determined photometrically)
Procedure, shortened: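 Growth inhibition measured photometrically 4–5 days post-application, following incubation at 24 °C. Test compound, applied from DMSO at 200 ppm, mixed with fungal mycelial fragments in potato dextrose broth.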

| SMILES | inhibition at 200 ppm [%] |
| --- | --- |
| C=CCCOC(=O)c1cc2c(cc1Cl)COB2O [Compound 203] | ≥ 80 |
| O=C(OC1CCC1)c1cc2c(cc1Cl)COB2O [Compound 205] | ≥ 80 |
| O=C(OCCOc1ccc(Cl)cc1)c1cc2c(cc1Cl)COB2O [Compound 226] | ≥ 80 |
| C#CCCOC(=O)c1cc2c(cc1Cl)COB2O [Compound 229] | ≥ 80 |
| C#CCCCOC(=O)c1ccc2c(c1)B(O)OC2 [Compound 334] | ≥ 80 |

Test system: Monographella nivalis (Microdochium nivale)
Assay: Monographella nivalis (Microdochium nivale) / liquid culture (foot rot cereals)
Type: cell-based
Conditions: PDB potato dextrose broth, 24° C., 4-5 days after application, read-out: disease control (inhibition of growth determined photometrically)

| SMILES | inhibition at 200 ppm [%] |
| --- | --- |
| O=C(NCc1ccc(Oc2ccccc2)cc1)c1cc2c(cc1F)COB2O [Compound 136] | ≥ 80 |
| O=C(OCC(Cl)(Cl)Cl)c1cc2c(cc1Cl)COB2O [Compound 197] | ≥ 80 |
| C=CCCOC(=O)c1cc2c(cc1Cl)COB2O [Compound 203] | ≥ 80 |
| O=C(OC1CCC1)c1cc2c(cc1Cl)COB2O [Compound 205] | ≥ 80 |
| O=C(OCCOc1ccc(Cl)cc1)c1cc2c(cc1Cl)COB2O [Compound 226] | ≥ 80 |
| C#CCCOC(=O)c1cc2c(cc1Cl)COB2O [Compound 229] | ≥ 80 |
| C#CCCCOC(=O)c1ccc2c(c1)B(O)OC2 [Compound 334] | ≥ 80 |

Test system: Plasmopara viticola
Assay: whole plant or invertebrate
Type: in vivo
Conditions: foliar, read-out: disease control

| SMILES | pest or weed control at 200 ppm [%] |
| --- | --- |
| O=C(OCCOc1ccc(Cl)cc1)c1cc2c(cc1Cl)COB2O [Compound 226] | ≥ 80 |
| C#CCCCOC(=O)c1ccc2c(c1)B(O)OC2 [Compound 334] | ≥ 80 |
